# In patent US9758559B2, “Short peptides derived from VDAC1, compositions and methods of use thereof” (B.G. NEGEV TECHNOLOGIES AND APPLICATIONS LTD., AT …, priority 2013, dated 2017):
# Where a SMILES comes first, the peptide text is derived from it. [ ]: non-standard residue; d: D form.
# Columns and labels:
# [1] = system: glioblastoma xenografts (U87 cells); assay: Tumor growth of U87 glioblastoma xenografts in nude mice; assay type: in vivo; conditions: xenografts injected with 10 μl of 20 or 40 μM solutions
# Experimental: U87 cells were inoculated into male nude mice (7×10^6 cells/mouse). Tumor volumes were monitored (using a digital caliper) and on day 11, the mice were divided into […] (5 mice per group), with each mouse containing a tumor with a volume between 100-200 mm^3 and similar average volumes measured per group. The four mice groups were subjected to the following treatments: Xenografts were injected with 0.26% DMSO (control), with D-Δ1-14N-Ter-Antp (10 μl of 20 or 40 μM solutions) or with the previously disclosed Tf-LP4 peptide (10 μl of a 20 μM solution).
# U-87 cells = assay: TEM visualization of apoptotic cell death; assay type: cell-based, human; conditions: 2.8 μM peptide
# Experimental: Representative images of transmission electron microscopy (TEM) of untreated cells (FIG. 8A) or cells treated with 2.8 μM of D-Δ1-14N-Ter-Antp (FIG. 8B) are shown.
# T-Rex-293 cells = assay type: cell-based
# Source text: (§1) Data represent mean values, n=3.
# (§2) It was previously disclosed that peptide Antp-LP4 (SEQ ID NO:23) derived from another part of VDAC1, selectively induce cell death of cancerous cells co-expressing the cell surface markers CD19 and CD5 (U.S. Pat. No. 8,648,045) as well as other cancer cells as HeLa.
# [2] = system: human prostate cancer cell lines (PC3); assay type: cell-based
# Source text: as §1, §2
# [3] = system: glioblastoma cell line U-87; assay: Cytochrome c release from mitochondria to cytosol (immunoblot); assay type: cell-based, human; conditions: U-87 cells, concentration-dependent
# Experimental: Release of cytochrome c (Cyt c) from mitochondria to the cytosol was measured by immunoblots. Cells were incubated for 5 h with the indicated concentration of the peptide, harvested, washed twice with PBS and gently resuspended in ice-cold buffer (100 mM KCl, 2.5 mM MgCl2, 250 mM sucrose, 20 mM HEPES/KOH pH 7.5, 0.2 mMEDTA, 1 mM dithiothreitol, 1 μg/ml leupeptin, 5 μg/ml cytochalasin B and 0.1 mM phenylmethylsulfonyl fluoride) containing 0.025% digitonin and incubated for 10 min on ice. Samples were centrifuged at 10,000 g at 4° C. for 5 min to obtain the supernatants (cytosolic extracts free of mitochondria) and the pellets (fraction that contains mitochondria). The supernatants were analyzed by SDS-PAGE and immunoprobed using anti-Cyto c antibodies (1:2000, BD Pharmingen™ Cat #556433), and then with secondary horseradish peroxidase (HRP)-conjugated anti-mouse antibodies.
# The effect of D-Δ(1-14) N-Ter-Antp on apoptosis was examined in the glioblastoma cell line U-87. U-87 cells were incubated with and without the peptide, treated with digitonin (0.02%) and the release of cytochrome c from mitochondria to the cytosolic fraction was analyzed by immunoblotting.
# glioblastoma U-87 cells [4] = assay: Mitochondrial membrane potential analysis (TMRM, FACS); assay type: cell-based, human; conditions: 3 h incubation
# Experimental: U-87 cells were incubated with the indicated concentrations of D-Δ1-14N-Ter-Antp (SEQ ID NO:9), washed with PBS, incubated with or without the potentiometric fluorescent dye TMRM (200 nM, 20 min), washed with PBS and subjected to FACS analysis. FCCP, allowing for Δψ dissipation, served as a control.
# (§3) VDAC1 is a key component in regulating the energy production of the cell. It is known that cancer cells are characterized by elevated energy demand. The effects of D-Δ(1-14) N-Ter-Antp on the mitochondrial inner membrane polarization and cellular ATP level were examined using glioblastoma U-87 cells. U-87 cells were incubated for 3 h with the various concentrations of D-Δ1-14N-Ter-Antp or with FCCP (10 μM, control for depolarization) for 1 h.
# glioblastoma U-87 cells [5] = assay: ATP quantification (CellTiter-Glo); assay type: cell-based, human; conditions: 3 h incubation
# Experimental: U-87 cells were seeded in 96-well plates (2×10^6/ml), incubated for 3 h with the indicated concentrations of D-Δ1-14N-Ter-Antp (SEQ ID NO:9), washed twice with PBS and incubated with the CellTiter-Glo reagent (Promega). Luminescence was recorded using an Infinite M1000 microplate reader (Tecan Trading, Mannedorf, Switzerland).
# as §3
# [6] = system: human neuroblastoma cells (SH-SY5Y); assay: Cell death of SH-SY5Y cells, PI staining and flow cytometry; assay type: cell-based; conditions: 6 h, serum-free medium, PI-positive cells
# Experimental: The efficacy of the peptide comprising amino acids […] of the N-terminal domain of VDAC1, synthesized with D-amino acids (all D-stereomeric peptide) conjugated to the Antp sequence also synthesized from D-amino acids as a CPP (D-Δ(1-14) N-Ter-Antp, SEQ ID NO:9) was further examined for its activity of inducing cell death with brain tumor derived cell lines. Human primary glioblastoma cells (U-87), human neuroblastoma cells (SH-SY5Y) and rat glioblastoma cells (C6) were incubated (4×10^5 cells) for 6 h in a serum-free-medium containing different concentrations of D-Δ1-14N-Ter-Antp (SEQ ID NO:9). The previously disclosed LP4 peptide conjugated to Tf (Tf-D-LP4 peptide, SEQ ID NO:20) was used as a reference of activity. At the end of the incubation time the cells were stained with PI and the level of cell death, reflected by the percentage of PI-positive cells, was determined by flow cytometry.
smiles,measurement,setting,value
"CC[C@@H](C)[C@@H](NC(=O)[C@@H](CCCCN)NC(=O)[C@H](NC(=O)[C@@H](CCC(N)=O)NC(=O)[C@@H](CCCNC(=N)N)NC(=O)[C@@H](CC(C)C)NC(=O)CNC(=O)[C@@H](Cc1ccccc1)NC(=O)CNC(=O)[C@@H](Cc1ccc(O)cc1)NC(=O)CNC(=O)[C@@H](CCCCN)NC(=O)[C@H](NC(=O)[C@@H](Cc1ccccc1)NC(=O)[C@H](NC(=O)[C@@H](CC(=O)O)NC(=O)[C@H](N)CCCNC(=N)N)C(C)C)[C@H](C)O)[C@H](C)CC)C(=O)N[C@H](Cc1c[nH]c2ccccc12)C(=O)N[C@H](Cc1ccccc1)C(=O)N[C@H](CCC(N)=O)C(=O)N[C@H](CC(N)=O)C(=O)N[C@H](CCCNC(=N)N)C(=O)N[C@H](CCCNC(=N)N)C(=O)N[C@H](CCSC)C(=O)N[C@H](CCCCN)C(=O)N[C@H](Cc1c[nH]c2ccccc12)C(=O)N[C@H](CCCCN)C(=O)N[C@H](CCCCN)C(=O)O [D-Δ(1-14) N-Ter-Antp, ALL D-RDVFTKGYGFGL RQIKIWFQNRRMKWKK] (H-[dR][dD][dV][dF][dT][dK]G[dY]G[dF]G[dL][dR][dQ][dI][dK][dI][dW][dF][dQ][dN][dR][dR][dM][dK][dW][dK][dK]-OH)",tumor size,[1],significantly reduced the tumor size
same,apoptotic morphology by TEM,U-87 cells,typical morphologic changes associated with apoptosis
same,"induction of cell death, in words",T-Rex-293 cells; T-Rex-293 control cells,some induction of cell death
same,IC50,"T-Rex-293 cells; non-malignant cells TRex-293, read-out: IC50, cell death, non-malignant cells TRex-293",> 14.3 µM
same,"induction of cell death, in words",[2]; PC3 cells,dramatic cell death
same,IC50,"[2]; prostate cell line PC3, read-out: IC50, cancer cell death, PC3",1510 nM
same,release of cytochrome c from the mitochondria,[3],significantly induced
same,mitochondrial inner membrane polarization,glioblastoma U-87 cells [4],induced mitochondrial inner membrane depolarization
same,cellular ATP level,glioblastoma U-87 cells [5],almost complete reduction of cellular ATP level
same,IC50,[6],2050 nM
